Results published in PubChem BioAssay (NCI).
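Cells were grown in 96-well plates and exposed to each compound for 48 hours at five concentrations; endpoints were interpolated linearly between bracketing concentrations, or set to the highest concentration if not reached. Here, GI50 denotes the concentration required for 50% inhibition of growth. At the TGI there is no net growth.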

Key:
Test in all cases: NCI-60 cell line screen, 48 h
A549 NSCLC = test system: A549 NSCLC
KM12 colon = test system: KM12 colon
OVCAR-5 ovarian = test system: OVCAR-5 ovarian
M14 melanoma = test system: M14 melanoma
EKVX NSCLC = test system: EKVX NSCLC
786-0 renal = test system: 786-0 renal
A498 renal = test system: A498 renal
HT29 colon = test system: HT29 colon
NCI-H23 lung = test system: NCI-H23 lung
SR leukemia = test system: SR leukemia
SF-539 CNS = test system: SF-539 CNS
PC-3 prostate = test system: PC-3 prostate
SNB-19 CNS = test system: SNB-19 CNS
CCRF-CEM leukemia = test system: CCRF-CEM leukemia
CAKI-1 renal = test system: CAKI-1 renal
UO-31 renal = test system: UO-31 renal
DU-145 prostate = test system: DU-145 prostate
SF-268 CNS = test system: SF-268 CNS
SK-MEL-5 melanoma = test system: SK-MEL-5 melanoma

| Compound | TGI (A549 NSCLC) [µM] | TGI (KM12 colon) [µM] | TGI (OVCAR-5 ovarian) [µM] | TGI (M14 melanoma) [µM] | TGI (EKVX NSCLC) [µM] | TGI (786-0 renal) [µM] | TGI (A498 renal) [µM] | TGI (HT29 colon) [µM] | TGI (NCI-H23 lung) [µM] | TGI (SR leukemia) [µM] | TGI (SF-539 CNS) [µM] | TGI (PC-3 prostate) [µM] | TGI (SNB-19 CNS) [µM] | TGI (CCRF-CEM leukemia) [µM] | TGI (CAKI-1 renal) [µM] | TGI (UO-31 renal) [µM] | TGI (DU-145 prostate) [µM] | TGI (SF-268 CNS) [µM] | TGI (SK-MEL-5 melanoma) [µM] | GI50 (DU-145 prostate) [µM] |
| --- | --- | --- | --- | --- | --- | --- | --- | --- | --- | --- | --- | --- | --- | --- | --- | --- | --- | --- | --- | --- |
| Cc1ccc(O)c(-c2csc(NCN3CCN(CNc4nc(-c5cc(C)ccc5O)cs4)CC3)n2)c1 | > 100 | > 100 | > 100 | > 100 | > 100 | > 100 | > 100 | > 100 | > 100 | > 100 | > 100 | > 100 | > 100 | > 100 | > 100 | > 100 | > 100 | > 100 | > 100 | – |
| CC(=O)N1N=C(N)CC1=O | > 100 | > 100 | > 100 | > 100 | > 100 | > 100 | > 100 | > 100 | > 100 | > 100 | > 100 | > 100 | > 100 | > 100 | > 100 | > 100 | > 100 | > 100 | > 100 | – |
| CC(C)(C)OC(=O)NC(Cc1ccc(OCc2ccccc2)cn1)C(=O)N1CCSCC1 (centres undefined) | > 100 | > 100 | > 100 | > 100 | > 100 | > 100 | > 100 | > 100 | > 100 | 75.3 | > 100 | 98.9 | > 100 | > 100 | > 100 | > 100 | > 100 | > 100 | 29.9 | – |
| O=CC1OC(=O)c2cc(O)c(O)c(O)c2-c2c(cc(O)c(O)c2O)C(=O)OC1C(O)C(O)CO (centres undefined) | > 100 | > 100 | > 100 | > 100 | > 100 | > 100 | > 100 | 46.8 | > 100 | 51.3 | > 100 | 31.9 | > 100 | 85.5 | 35.9 | > 100 | > 100 | > 100 | > 100 | – |
| O[C@H]1[C@H](O)[C@H](O)CN2CCC[C@@H](O)[C@H]12 | > 100 | > 100 | > 100 | > 100 | > 100 | > 100 | > 100 | > 100 | > 100 | > 100 | > 100 | > 100 | > 100 | > 100 | > 100 | > 100 | > 100 | > 100 | > 100 | – |
| O=c1[nH]c2ccc(CC(=S)N3CCN(c4ccccc4)CC3)cc2o1 | > 100 | > 100 | > 100 | > 100 | > 100 | > 100 | > 100 | > 100 | > 100 | > 100 | > 100 | > 100 | > 100 | > 100 | > 100 | > 100 | > 100 | > 100 | > 100 | – |
| N#CC(N=Nc1ccccc1)c1nc2ccccc2o1 (centres undefined) | > 100 | > 100 | > 100 | > 100 | > 100 | 45.5 | > 100 | > 100 | 43.9 | > 100 | 28.8 | > 100 | > 100 | > 100 | > 100 | > 100 | 72.4 | 59.9 | > 100 | – |
| C=Cc1cc2c(cc1O)CC[C@@H]1[C@@H]2CC[C@]2(C)[C@@H](O)CC[C@@H]12 | 19.9 | 14.9 | 41.3 | 17.7 | 29 | 14.3 | 39.1 | 29.5 | 14.3 | 8.4 | 5.53 | 36.5 | 13.6 | 17.2 | 20.8 | 20.5 | 16.6 | 21.9 | 15.7 | 4.41 |
| CC1(C)C(=O)C2(OS(=O)(=O)C(F)(F)F)CCC1C2 (centres undefined) | > 100 | > 100 | > 100 | > 100 | > 100 | > 100 | > 100 | > 100 | > 100 | > 100 | > 100 | > 100 | > 100 | > 100 | > 100 | > 100 | > 100 | > 100 | > 100 | – |
| CC12CC3(O)OC(O1)C1(COC(=O)c4ccccc4)C3CC21OC1OC(CO)C(O)C(O)C1O (centres undefined) | > 100 | > 100 | > 100 | > 100 | > 100 | > 100 | > 100 | > 100 | > 100 | > 100 | > 100 | > 100 | > 100 | > 100 | > 100 | > 100 | > 100 | > 100 | > 100 | – |
| COC(=O)c1ccc(CCc2cc(O)c(Br)cc2O)cc1 | 50.5 | > 55.3 | 33.8 | 29 | 31.3 | 27.5 | 40.7 | 32.8 | 15.4 | 14.4 | 20.7 | 20.6 | 33.1 | 5.78 | 23.2 | 18.1 | 27.5 | 34.1 | 23.7 | – |
| O=C(/C=C/c1cccs1)c1cccc(C(=O)/C=C/c2cccs2)n1 | > 100 | > 66.3 | > 100 | > 100 | > 100 | 38.2 | > 100 | > 34.1 | > 90.6 | > 24.6 | 21.5 | > 100 | > 85 | 8.51 | > 100 | > 100 | > 100 | > 68.5 | > 100 | – |
| COc1ccc(C(C#N)NCCCCCCNC(C#N)c2ccc(OC)cc2)cc1 (centres undefined) | > 100 | > 100 | > 100 | > 100 | > 100 | > 100 | > 100 | > 100 | > 100 | > 100 | > 100 | > 100 | > 100 | > 100 | > 100 | > 100 | > 100 | > 100 | > 100 | – |
| Cc1ccc(/C=N/Nc2nncc3ccccc23)s1 | > 100 | > 100 | > 100 | > 100 | > 100 | > 95.1 | > 100 | > 100 | > 100 | > 100 | > 100 | > 100 | > 100 | > 100 | > 100 | > 100 | > 31.6 | > 100 | > 100 | – |
| CC(C)NC(=O)OCc1c(COC(=O)NC(C)C)c(-c2ccc[n+](COC(=O)C3CC3)c2)n2c1CCC2 | > 100 | > 100 | > 100 | > 100 | > 100 | > 100 | 88.1 | > 100 | > 100 | > 100 | > 100 | > 100 | > 100 | > 100 | 89 | > 100 | > 100 | > 100 | > 100 | – |
| Nn1c(SCC(=O)NCc2ccccc2)nc2ccccc2c1=O | > 100 | > 100 | > 100 | > 100 | > 100 | > 100 | > 100 | > 100 | > 100 | 69 | > 100 | > 100 | > 100 | > 100 | > 100 | > 100 | > 100 | > 100 | > 100 | – |
| CCOP(=O)(OCC)/C(C#N)=C/c1cccn1N(C)C | > 100 | > 100 | > 100 | > 100 | > 100 | > 100 | > 100 | > 100 | > 100 | > 100 | > 100 | > 100 | > 100 | > 100 | > 100 | > 100 | > 100 | > 100 | > 100 | – |
